Where two headings read alike, the source gives them in different places.
Experiments:
[1] = system: Key Grass and Sedge Weeds as well as Grass Crops; assay: Post-emergent Test II herbicidal activity (Table 6); format: in vivo; conditions: post-emergence, 336 h; for pest or weed control at 70 g/ha: application rate 70 g ai/ha; for pest or weed control at 140 g/ha: application rate 140 g ai/ha
In short: (§1)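 Visual injury ratings (0 = no injury, 100 = complete kill) were taken 14 d after treatment, relative to untreated plants. Seedlings at the first–second true leaf stage received overhead spray at 187 L/ha; the highest rate was serially diluted to ½×, ¼×, ⅛× and 1/16×.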

[2] = system: Key Broadleaf Weed and Crop Species; assay: Post-emergent Test II herbicidal activity (Table 5); format: in vivo; conditions: post-emergence, 336 h, post-emergent, 14 days after application; for pest or weed control at 70 g/ha: 70 g ai/ha; for pest or weed control at 140 g/ha: 140 g ai/ha
In short: as §1

[3] = CYPES: yellow nutsedge (Cyperus esculentus), read-out: Visual Growth Reduction (%) 14 Days After Application, CYPES
[4] = DIGSA: crabgrass (Digitaria sanguinalis), read-out: Visual Growth Reduction (%) 14 Days After Application, DIGSA
[5] = ECHCG: barnyardgrass (Echinochloa crus-galli), read-out: Visual Growth Reduction (%) 14 Days After Application, ECHCG
[6] = ORYSA: rice (Oryza sativa), read-out: Visual Growth Reduction (%) 14 Days After Application, ORYSA
[7] = SETFA: giant foxtail (Setaria faberi), read-out: Visual Growth Reduction (%) 14 Days After Application, SETFA
[8] = SORVU: grain sorghum (Sorghum vulgare), read-out: Visual Growth Reduction (%) 14 Days After Application, SORVU
[9] = TRZSS (wheat, Triticum aestivum), read-out: Visual Growth Reduction (%) 14 Days After Application, TRZSS
[10] = ZEAMX: maize, corn (Zea mays), read-out: Visual Growth Reduction (%) 14 Days After Application, ZEAMX
[11] = ABUTH: velvetleaf (Abutilon theophrasti), read-out: Visual Growth Reduction (%) 14 Days After Application ABUTH
[12] = AMARE: redroot pigweed (Amaranthus retroflexus), read-out: Visual Growth Reduction (%) 14 Days After Application AMARE
[13] = BRSNN: oilseed-rape, canola (Brassica napus), read-out: Visual Growth Reduction (%) 14 Days After Application BRSNN
[14] = CHEAL: lambsquarters (Chenopodium album), read-out: Visual Growth Reduction (%) 14 Days After Application CHEAL
[15] = EPHHL: wild poinsettia (Euphorbia heterophylla), read-out: Visual Growth Reduction (%) 14 Days After Application EPHHL
[16] = HELAN: sunflower (Helianthus annuus), read-out: Visual Growth Reduction (%) 14 Days After Application HELAN
[17] = VIOTR: wild pansy (Viola tricolor), read-out: Visual Growth Reduction (%) 14 Days After Application VIOTR

Question: What does the source list for COC(=O)c1nc(-c2c(F)cc(I)c(F)c2F)cc(N)c1Cl [Compound 90]?
Answer: pest or weed control at 70 g/ha [1, 3]: 95 to 100%; pest or weed control at 140 g/ha [1, 3]: 95 to 100%; pest or weed control at 70 g/ha [1, 4]: 85 to 94%; pest or weed control at 140 g/ha [1, 4]: 75 to 84%; pest or weed control at 70 g/ha [1, 5]: 85 to 94%; pest or weed control at 140 g/ha [1, 5]: 85 to 94%; pest or weed control at 70 g/ha [1, 6]: 30 to 44%; pest or weed control at 140 g/ha [1, 6]: 0 to 29%; pest or weed control at 70 g/ha [1, 7]: 85 to 94%; pest or weed control at 140 g/ha [1, 7]: 85 to 94%; pest or weed control at 70 g/ha [1, 8]: 95 to 100%; pest or weed control at 140 g/ha [1, 8]: 95 to 100%; pest or weed control at 70 g/ha [1, 9]: 30 to 44%; pest or weed control at 140 g/ha [1, 9]: 45 to 59%; pest or weed control at 70 g/ha [1, 10]: 60 to 74%; pest or weed control at 140 g/ha [1, 10]: 60 to 74%; melting point: 176.2 to 178.7 °C; pest or weed control at 70 g/ha [2, 11]: 85 to 94%; pest or weed control at 140 g/ha [2, 11]: 85 to 94%; pest or weed control at 70 g/ha [2, 12]: 95 to 100%; pest or weed control at 140 g/ha [2, 12]: 95 to 100%; pest or weed control at 70 g/ha [2, 13]: 95 to 100%; pest or weed control at 140 g/ha [2, 13]: 95 to 100%; pest or weed control at 70 g/ha [2, 14]: 95 to 100%; pest or weed control at 140 g/ha [2, 14]: 95 to 100%; pest or weed control at 70 g/ha [2, 15]: 95 to 100%; pest or weed control at 140 g/ha [2, 15]: 95 to 100%; pest or weed control at 70 g/ha [2, 16]: 30 to 44%; pest or weed control at 140 g/ha [2, 16]: 75 to 84%; pest or weed control at 70 g/ha [2, 17]: 95 to 100%; pest or weed control at 140 g/ha [2, 17]: 95 to 100%

Question: Which pest or weed control at 70 g/ha [1, 3] does the source give for COC(=O)c1nc(-c2cc(F)c(OC(F)F)cc2F)cc(N)c1Cl [Compound 177] here?
Answer: The pest or weed control at 70 g/ha was 45 to 59%.

Question: And the pest or weed control at 140 g/ha [1, 3]?
Answer: Its pest or weed control at 140 g/ha is 45 to 59%.

Question: What about the pest or weed control at 70 g/ha [1, 4] of the same molecule?
Answer: The pest or weed control at 70 g/ha was 0 to 29%.

Question: And the pest or weed control at 140 g/ha [1, 4]?
Answer: Its pest or weed control at 140 g/ha is 0 to 29%.

Question: What about the pest or weed control at 70 g/ha [1, 5] of the same molecule?
Answer: Its pest or weed control at 70 g/ha is 0 to 29%.

Question: What about the pest or weed control at 140 g/ha [1, 5] of the same molecule?
Answer: Its pest or weed control at 140 g/ha is 60 to 74%.

Question: And the pest or weed control at 70 g/ha [1, 6]?
Answer: The pest or weed control at 70 g/ha was 0 to 29%.

Question: What about the pest or weed control at 140 g/ha [1, 6] of the same molecule?
Answer: Its pest or weed control at 140 g/ha is 0 to 29%.

Question: And the pest or weed control at 70 g/ha [1, 7]?
Answer: The pest or weed control at 70 g/ha was 30 to 44%.

Question: What about the pest or weed control at 140 g/ha [1, 7] of the same molecule?
Answer: Its pest or weed control at 140 g/ha is 45 to 59%.

Question: What about the pest or weed control at 70 g/ha [1, 8] of the same molecule?
Answer: The pest or weed control at 70 g/ha was 0 to 29%.

Question: And the pest or weed control at 140 g/ha [1, 8]?
Answer: Its pest or weed control at 140 g/ha is 45 to 59%.

Question: And the pest or weed control at 70 g/ha [1, 9]?
Answer: The pest or weed control at 70 g/ha was 30 to 44%.

Question: And the pest or weed control at 140 g/ha [1, 9]?
Answer: Its pest or weed control at 140 g/ha is 30 to 44%.

Question: What about the pest or weed control at 70 g/ha [1, 10] of the same molecule?
Answer: Its pest or weed control at 70 g/ha is 0 to 29%.

Question: What about the pest or weed control at 140 g/ha [1, 10] of the same molecule?
Answer: Its pest or weed control at 140 g/ha is 0 to 29%.

Question: What about the melting point of the same molecule?
Answer: Its melting point is 107.5 to 110.3 °C.

Question: And the pest or weed control at 70 g/ha [2, 11]?
Answer: The pest or weed control at 70 g/ha was 85 to 94%.

Question: What about the pest or weed control at 140 g/ha [2, 11] of the same molecule?
Answer: Its pest or weed control at 140 g/ha is 85 to 94%.

Question: And the pest or weed control at 70 g/ha [2, 12]?
Answer: Its pest or weed control at 70 g/ha is 75 to 84%.

Question: What about the pest or weed control at 140 g/ha [2, 12] of the same molecule?
Answer: The pest or weed control at 140 g/ha was 85 to 94%.

Question: What about the pest or weed control at 70 g/ha [2, 13] of the same molecule?
Answer: The pest or weed control at 70 g/ha was 30 to 44%.

Question: And the pest or weed control at 140 g/ha [2, 13]?
Answer: Its pest or weed control at 140 g/ha is 75 to 84%.

Question: And the pest or weed control at 70 g/ha [2, 14]?
Answer: The pest or weed control at 70 g/ha was 75 to 84%.

Question: And the pest or weed control at 140 g/ha [2, 14]?
Answer: Its pest or weed control at 140 g/ha is 85 to 94%.

Question: And the pest or weed control at 70 g/ha [2, 15]?
Answer: The pest or weed control at 70 g/ha was 95 to 100%.

Question: And the pest or weed control at 140 g/ha [2, 15]?
Answer: The pest or weed control at 140 g/ha was 95 to 100%.

Question: And the pest or weed control at 70 g/ha [2, 16]?
Answer: The pest or weed control at 70 g/ha was 30 to 44%.

Question: And the pest or weed control at 140 g/ha [2, 16]?
Answer: Its pest or weed control at 140 g/ha is 0 to 29%.

Question: And the pest or weed control at 70 g/ha [2, 17]?
Answer: The pest or weed control at 70 g/ha was 0 to 29%.

Question: What about the pest or weed control at 140 g/ha [2, 17] of the same molecule?
Answer: Its pest or weed control at 140 g/ha is 0 to 29%.

From patent US9113629B2, “4-amino-6-(4-substituted-phenyl)-picolinates and 6-amino-2-(4-substituted-phenyl)-pyrimidine-4-carboxylates and their use as herbicides” (DOW AGROSCIENCES LLC, priority 2013, dated 2015)
